Laboratory results published in ChEMBL document CHEMBL1201862, “PubChem BioAssay data set” (2004).
Activity calls are given as the source filed them.

Key:
[1] = target: Cytochrome P450 2C19 (Homo sapiens, UniProt P33261); assay: Cytochrome panel assay with activity outcomes. Panel member name: p450-cyp2c19 Compounds with AC50 equal or less than 10 uM are considered active; format: functional
[2] = target: T1, Cytochrome P450 1A2 (Homo sapiens, UniProt P05177)
T1 sequence (P05177 whole entry): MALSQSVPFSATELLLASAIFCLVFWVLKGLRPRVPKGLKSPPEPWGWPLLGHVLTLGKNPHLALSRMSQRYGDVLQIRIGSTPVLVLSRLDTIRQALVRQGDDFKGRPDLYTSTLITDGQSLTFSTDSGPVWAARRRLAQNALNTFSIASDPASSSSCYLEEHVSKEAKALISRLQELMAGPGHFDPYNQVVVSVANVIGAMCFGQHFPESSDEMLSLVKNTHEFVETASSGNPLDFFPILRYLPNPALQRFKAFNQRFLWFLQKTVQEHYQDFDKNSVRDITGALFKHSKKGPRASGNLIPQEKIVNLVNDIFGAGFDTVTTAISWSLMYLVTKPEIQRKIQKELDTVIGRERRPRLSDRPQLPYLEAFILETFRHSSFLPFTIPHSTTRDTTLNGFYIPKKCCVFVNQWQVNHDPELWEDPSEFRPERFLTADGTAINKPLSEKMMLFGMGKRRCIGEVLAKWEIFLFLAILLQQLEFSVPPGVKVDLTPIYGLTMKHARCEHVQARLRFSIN

[3] = target: Cytochrome P450 3A4 (Homo sapiens, UniProt P08684);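 note: CYP3A4 tested as one member of a cytochrome P450 panel screen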
Sequence of Cytochrome P450 3A4 (P08684 whole entry): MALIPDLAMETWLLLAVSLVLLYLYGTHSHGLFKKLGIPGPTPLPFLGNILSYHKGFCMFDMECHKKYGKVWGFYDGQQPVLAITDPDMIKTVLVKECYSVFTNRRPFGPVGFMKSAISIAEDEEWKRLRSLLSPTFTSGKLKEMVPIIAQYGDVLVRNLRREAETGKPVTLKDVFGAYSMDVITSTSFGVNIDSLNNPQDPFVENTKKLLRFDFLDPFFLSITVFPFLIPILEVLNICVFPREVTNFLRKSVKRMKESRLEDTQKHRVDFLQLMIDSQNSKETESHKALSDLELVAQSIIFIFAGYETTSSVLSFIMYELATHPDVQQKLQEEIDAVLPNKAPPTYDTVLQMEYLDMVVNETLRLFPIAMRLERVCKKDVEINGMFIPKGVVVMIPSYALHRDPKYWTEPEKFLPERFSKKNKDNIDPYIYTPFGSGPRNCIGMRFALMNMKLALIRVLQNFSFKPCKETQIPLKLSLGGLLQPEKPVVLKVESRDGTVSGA

[4] = inhibitors of firefly luciferase expression or activity, dose response, H4 neuroglioma cells, luminescence (AID 1990); format: functional, cell-based
[5] = Luminescence Cell-Based Dose Response HTS to Identify Inhibitors of 5'UTR Stem-Loop Driven Prion Protein mRNA Translation in H4 Neuroglioblastoma Cells. [Related pubchem assays: 1827 (Project Summary), 1813 (Primary HTS)]; format: functional
[6] = inhibitors of SNCA 5'UTR-driven reporter translation, confirmation, H4 neuroglioma cells, luminescence (AID 1988); format: functional, cell-based
[7] = target: Cytochrome P450 2C9 (Homo sapiens, UniProt P11712)
Sequence of Cytochrome P450 2C9 (P11712 whole entry): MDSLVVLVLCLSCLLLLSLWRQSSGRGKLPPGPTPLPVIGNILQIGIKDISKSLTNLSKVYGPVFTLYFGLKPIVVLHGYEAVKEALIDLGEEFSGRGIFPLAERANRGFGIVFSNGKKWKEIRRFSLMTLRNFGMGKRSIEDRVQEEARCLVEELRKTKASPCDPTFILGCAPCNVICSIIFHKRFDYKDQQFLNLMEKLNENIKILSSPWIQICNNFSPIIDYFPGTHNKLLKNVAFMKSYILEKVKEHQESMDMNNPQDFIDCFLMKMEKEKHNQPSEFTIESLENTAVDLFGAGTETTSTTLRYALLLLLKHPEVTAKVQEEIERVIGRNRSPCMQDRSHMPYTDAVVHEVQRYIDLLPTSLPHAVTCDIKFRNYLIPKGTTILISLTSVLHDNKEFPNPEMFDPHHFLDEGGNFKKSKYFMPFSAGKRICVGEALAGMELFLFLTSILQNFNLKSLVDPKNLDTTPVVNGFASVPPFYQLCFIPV

[8] = system: Streptococcus sp. 'group A'; assay: growth inhibition of control SK(-) GAS strain, dose response, counter-screen for streptokinase expression inhibitor project, luminescence, kanamycin, BacTiterGlo, confirmation (AID 1900); format: functional, organism-based
[9] = target: T2, Streptokinase A (Streptococcus pyogenes serotype M1, UniProt P10520); assay: S. pyogenes streptokinase expression inhibitors, potency, dose response, plasminogen activation absorbance, OD405 (AID 1914); format: functional, Streptococcus pyogenes M1 GAS;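 note: secreted streptokinase activity via plasminogen activation per viability signal from cell pellet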
T2 sequence (P10520 whole entry): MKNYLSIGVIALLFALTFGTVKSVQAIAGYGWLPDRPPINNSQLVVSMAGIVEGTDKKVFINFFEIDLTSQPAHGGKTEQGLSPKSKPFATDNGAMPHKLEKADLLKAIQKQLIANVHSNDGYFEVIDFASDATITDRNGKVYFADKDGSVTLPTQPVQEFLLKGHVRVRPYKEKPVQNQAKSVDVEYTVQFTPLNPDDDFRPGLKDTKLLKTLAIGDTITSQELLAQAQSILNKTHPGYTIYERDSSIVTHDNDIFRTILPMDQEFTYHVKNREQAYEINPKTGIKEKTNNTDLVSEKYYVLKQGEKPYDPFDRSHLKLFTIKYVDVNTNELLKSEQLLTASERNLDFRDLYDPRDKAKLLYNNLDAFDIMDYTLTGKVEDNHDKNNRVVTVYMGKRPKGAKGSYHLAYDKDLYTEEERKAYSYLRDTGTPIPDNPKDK

[10] = system: Streptococcus; assay: Group A Streptococcus viability loss, dose response, counter-screen for streptokinase expression inhibitor project, luminescence, BacTiterGlo (AID 1915); format: functional, organism-based;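 note: potency for reduction of bacterial viability or growth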
[11] = system: INS1; assay: beta cell apoptosis inhibitors, cytokine rescue, dose response, luminescence, retest (AID 449756); format: functional, cell-based; details: Rattus norvegicus;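 note: cell death triggered by IL-1 beta plus TNF-alpha plus IFN-gamma mixture; protective hits raise ATP signal compared with cytokine alone wells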
[12] = target: T3, Corticotropin-releasing factor receptor 2/Corticotropin-releasing factor-binding protein (Homo sapiens, UniProt P24387+Q13324); assay: activators of CRF receptor 2 with binding protein – uHTS hits, confirmation (AID 602473); format: functional; details: read-out: EC50_Mean
T3 sequence (Q13324 whole entry): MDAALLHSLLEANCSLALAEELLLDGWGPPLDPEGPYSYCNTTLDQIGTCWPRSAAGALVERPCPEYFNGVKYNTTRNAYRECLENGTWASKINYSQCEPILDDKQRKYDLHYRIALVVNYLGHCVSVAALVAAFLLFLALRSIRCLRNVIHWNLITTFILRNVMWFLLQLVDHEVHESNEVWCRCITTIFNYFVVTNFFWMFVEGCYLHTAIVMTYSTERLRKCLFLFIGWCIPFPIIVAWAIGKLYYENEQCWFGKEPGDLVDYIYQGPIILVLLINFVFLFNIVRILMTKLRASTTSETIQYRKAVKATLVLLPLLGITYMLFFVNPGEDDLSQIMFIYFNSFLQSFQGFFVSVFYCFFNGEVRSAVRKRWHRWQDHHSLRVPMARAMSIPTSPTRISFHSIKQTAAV
T3 sequence (P24387 whole entry): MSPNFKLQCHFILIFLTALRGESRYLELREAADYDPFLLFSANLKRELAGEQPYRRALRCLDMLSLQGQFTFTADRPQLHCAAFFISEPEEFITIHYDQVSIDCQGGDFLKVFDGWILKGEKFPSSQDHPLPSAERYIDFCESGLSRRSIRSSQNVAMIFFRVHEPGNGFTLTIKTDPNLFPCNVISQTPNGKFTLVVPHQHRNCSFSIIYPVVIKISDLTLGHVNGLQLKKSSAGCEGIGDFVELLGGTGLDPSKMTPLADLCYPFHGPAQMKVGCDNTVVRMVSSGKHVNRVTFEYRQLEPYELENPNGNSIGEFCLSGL

[13] = target: Cytochrome P450 2D6 (Homo sapiens, UniProt P10635);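 note: CYP2D6 member of a cytochrome P450 panel assay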
Sequence of Cytochrome P450 2D6 (P10635 whole entry): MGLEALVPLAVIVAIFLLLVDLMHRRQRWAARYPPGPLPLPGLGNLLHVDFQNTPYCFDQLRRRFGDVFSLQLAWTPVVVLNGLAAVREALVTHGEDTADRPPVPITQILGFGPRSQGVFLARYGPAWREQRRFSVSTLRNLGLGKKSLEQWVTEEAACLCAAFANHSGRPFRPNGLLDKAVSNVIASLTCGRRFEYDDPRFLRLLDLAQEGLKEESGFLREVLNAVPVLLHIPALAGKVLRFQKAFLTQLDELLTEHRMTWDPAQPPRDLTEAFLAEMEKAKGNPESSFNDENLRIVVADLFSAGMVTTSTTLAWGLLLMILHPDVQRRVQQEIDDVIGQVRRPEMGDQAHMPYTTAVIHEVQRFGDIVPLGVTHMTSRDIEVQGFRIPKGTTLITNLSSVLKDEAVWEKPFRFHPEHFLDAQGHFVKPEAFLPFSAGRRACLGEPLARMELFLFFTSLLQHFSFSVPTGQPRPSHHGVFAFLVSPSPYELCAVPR

[14] = HEp-2 cell cytotoxicity, dose response, cytotoxicity control for RSV inhibitor project, HTS (AID 2410); format: functional; details: human respiratory syncytial virus
[15] = Luminescence Cell-Based Dose Retest to Confirm Inhibitors of Cancer Stem Cells. [Related pubchem assays (depositor defined):AID2717, AID2721]; format: functional; details: Homo sapiens

Sequence of Cytochrome P450 2C19 (P33261 whole entry): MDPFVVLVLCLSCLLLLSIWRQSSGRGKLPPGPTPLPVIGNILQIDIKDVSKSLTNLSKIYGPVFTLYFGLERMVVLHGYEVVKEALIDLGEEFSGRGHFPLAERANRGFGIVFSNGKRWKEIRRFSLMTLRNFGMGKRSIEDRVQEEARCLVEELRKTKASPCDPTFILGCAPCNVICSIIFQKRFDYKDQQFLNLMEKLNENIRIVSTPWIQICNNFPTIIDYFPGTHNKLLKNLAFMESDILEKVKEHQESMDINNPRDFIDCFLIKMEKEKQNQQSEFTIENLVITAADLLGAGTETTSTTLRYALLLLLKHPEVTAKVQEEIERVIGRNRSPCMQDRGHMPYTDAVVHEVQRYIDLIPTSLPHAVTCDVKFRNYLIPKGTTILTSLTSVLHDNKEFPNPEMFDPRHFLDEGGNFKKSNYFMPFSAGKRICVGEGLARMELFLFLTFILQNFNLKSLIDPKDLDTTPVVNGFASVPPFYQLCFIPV

CN(C)c1ncc2nc(-c3cc(F)cc(F)c3)c(=O)n(Cc3cccs3)c2n1
AC50 [1]: inconclusive | AC50 [2]: 1.58 µM (inconclusive) | AC50 [3]: 5.01 µM (inconclusive)

COc1cc(C(=O)O/N=C(\N)Cc2ccc([N+](=O)[O-])cc2)cc(OC)c1OC
EC50 [4]: 23.3 µM (active) | EC50 [5]: > 120 µM (not active) | EC50 [6]: 8.41 µM (active)

CCOC(=O)C1CCCCN1C(=O)CCc1c(C)nc2ncnn2c1C (stereo not given)
EC50 [4]: 14.7 µM (active) | EC50 [5]: > 120 µM (not active) | EC50 [6]: 14.8 µM (active)

CCCCNCCOCCOc1ccc(C)cc1[N+](=O)[O-]
AC50 ([1]; read-out: AC50): 39.8 µM (inconclusive) | AC50 [3]: 14.1 µM (inconclusive) | AC50 [7]: 3.16 µM (inconclusive)

Nc1nonc1-c1nc2ccccc2n1Cc1ccc(F)cc1Cl
AC50 [3]: 14.1 µM (inconclusive) | AC50 [7]: 3.55 µM (inconclusive)

O=c1cc(CN2CCN(c3ccc(F)cc3)CC2)c2cc3c(cc2o1)CCCC3
AC50 [3]: 14.1 µM (inconclusive)

Cc1cnc(CNc2nc(-c3ccc(C(=O)N(C)C)cc3)nc3ccccc23)cn1
AC50 [2]: 25.1 µM (inconclusive) | AC50 [3]: 15.8 µM (inconclusive)

Cc1ccccc1Nc1c(-c2ccccn2)nc2c(C)cccn12
EC50 [8]: 19.3 µM (active) | EC50 [9]: > 150 µM (not active) | EC50 [10]: > 150 µM (not active) | AC50 [11]: 6.81 µM (active)

Cc1ccc(CCNC(=O)C2CC(c3ccccc3[N+](=O)[O-])=NO2)cc1 (stereo not given)
AC50 [3]: 1.12 µM (inconclusive) | AC50 [7]: 39.8 µM (inconclusive)

COc1ccc(-c2nc3c(c(=O)c4ccccc4n3C)c(=O)n2Cc2ccccc2)cc1
EC50 [12]: > 53 µM (inactive)

S=C(CSc1ccccc1)Nc1cccc2ccccc12
AC50 [3]: 3.98 µM (inconclusive)

COC(=O)C/C=C\[C@@H](C)[C@@H](/C=N\O[C@@H]1O[C@H](COC(C)=O)[C@H](OC(C)=O)[C@H](OC(C)=O)[C@H]1OC(C)=O)OC
AC50 [13]: 3.98 µM (inconclusive) | AC50 [3]: 6.31 µM (inconclusive)

CC(=O)NNC(=O)c1csc(Cc2c(Cl)sc3ccc(Cl)cc23)n1
EC50 [4]: 11.5 µM (active) | EC50 [5]: > 120 µM (not active) | EC50 [6]: 10.3 µM (active)

Cc1onc(-c2c(Cl)cccc2Cl)c1C(=O)Nc1nc(C(C)(C)C)cs1
CC50 [14]: 17 µM (active) | EC50 [4]: 14.4 µM (active) | EC50 [5]: 16.7 µM (active) | EC50 [6]: 12.2 µM (active)

Cc1oc(-c2ccccc2Cl)nc1C[S+]([O-])CC(=O)NCCc1ccccc1 (stereo not given)
EC50 [4]: > 120 µM (not active) | EC50 [5]: > 120 µM (not active) | EC50 [6]: > 120 µM (not active)

CSc1nc2c(c(=O)n1Cc1ccccc1)SC(C)C2 (stereo not given)
EC50 [4]: 25.7 µM (active) | EC50 [5]: > 120 µM (not active) | EC50 [6]: 84.8 µM (active)

Cc1ccc(N2C(=O)/C(=C\Nc3cc(C)on3)c3ccccc3C2=O)c(C)c1
EC50 [4]: > 120 µM (not active) | EC50 [5]: 19.6 µM (active) | EC50 [6]: 12.9 µM (active)

COc1ccc(C2=CC(c3ccco3)n3ncnc3N2)cc1 (stereo not given)
EC50 [12]: 4.53 µM (active)

CC1=CC(C)(C)N(S(=O)(=O)c2ccc(F)cc2)c2ccc(C)cc21
AC50 [15]: 1.42 µM (active)

CCC1OC23CCCCC2C(C#N)(C(=N)O3)C1(C#N)C#N (stereo not given)
AC50 [3]: 25.1 µM (inconclusive) | AC50 [7]: 14.1 µM (inconclusive)

CCN(CC)CC(=O)Nc1sc2c(c1C(=O)c1ccccc1OC)CCC2
EC50 [4]: > 120 µM (not active) | EC50 [5]: 16.2 µM (active) | EC50 [6]: > 120 µM (not active)

CN(C)C(=O)c1ccc(-c2nccc(NCc3ccccc3)n2)cc1
AC50 [13]: 39.8 µM (inconclusive) | AC50 [2]: 15.8 µM (inconclusive) | AC50 [3]: 20 µM (inconclusive)

Cc1nc(NCc2ccco2)c2c3c(sc2n1)CCC3
AC50 [13]: 25.1 µM (inconclusive) | AC50 [3]: 15.8 µM (inconclusive) | AC50 [7]: 12.6 µM (inconclusive)

C[C@@H](CSc1ccc(Br)cc1)CN1CC[C@H](C(C)(C)C)CCC1=O
AC50 [15]: 0.315 µM (active)

Cc1ccc(-c2csc3ncnc(-n4cnc5ccccc54)c23)cc1
AC50 [15]: 2.81 µM (active)

C[C@@]12CC[C@@H]3c4ccc(O)cc4C[C@H](CCCCCCCCC[S+]([O-])CCCC(F)(F)C(F)(F)F)[C@H]3[C@@H]1CC[C@@H]2O (stereo not given in full)
AC50 [2]: 31.6 µM (inconclusive) | AC50 [3]: 1 µM (inconclusive)

Cc1ccc(-c2noc(CN3CCN(C(c4ccccc4)c4ccccc4)CC3)n2)cc1
AC50 [3]: 35.5 µM (inconclusive)

COc1ccc(-c2sc3cc(OC)c(OC)cc3c2-c2ccc(O)cc2)cc1
AC50 [15]: 1.58 µM (active)

CC(C)(C)OC(=O)N1CCC(CNC(=O)c2cccs2)CC1
AC50 [11]: > 260 µM (inactive)

CCOc1cccc(/C=N/NC(=O)c2cc(C3CC3)[nH]n2)c1O
AC50 [15]: 5.71 µM (active) | AC50 [11]: 3.73 µM (active)

Cc1cccc(N/N=C(/C=O)C(=O)c2cccs2)c1
AC50 [15]: 2.58 µM (active)

Cc1nn(-c2ccccc2)c(O)c1/C=N/NC(=O)COc1ccccc1[N+](=O)[O-]
AC50 [11]: 3.4 µM (active)

CCNC(=S)N/N=C/c1cn(Cc2ccc(F)cc2)c2ccccc12
AC50 [15]: 24 µM (active)

O=C(Nc1ccccc1)c1cc([N+](=O)[O-])ccc1Cl
AC50 [13]: 10 µM (inconclusive) | AC50 [3]: 25.1 µM (inconclusive)
